“And” between values parts separate entries of the source, which are not always exact repeats. Equal values may be shown once. “Also recorded” adds a separate entry of the source. Non-standard residues stand in square brackets, D forms with d. Residues, ends and D or L forms follow the SMILES beside them. pGlu = O=C1CC[C@@H](C(=O)O)N1
Experiments:
Format in all cases: in vivo
[1] = system: release of LH; assay: Release of LH in rats after sc injection; conditions: for release of LH compared with LHRH: sc injection, dose and time as stated in the source
From the text: (§1) The data on the release of LH and FSH in rats by modifications of LHRH with one structural change are in Table II.
(§2) Exclusive of the salmon-LHRH, only one of the six decapeptides with two structural changes had significant activity.

[2] = system: release of FSH; assay: Release of FSH in rats after sc injection; conditions: for FSH % change: LHRH = 100
From the text: as §1, §2

[3] = system: release of FSH; assay: Release of FSH in rats after sc injection; conditions: dose and time as stated in the source
[4] = 15 min. after sc injection, 100 ng, LHRH = 100
[5] = 15 min. after sc injection, 1000 ng, LHRH = 100
[6] = 60 min. after sc injection, 300 ng, LHRH = 100
[7] = 60 min. after sc injection, 3000 ng, LHRH = 100
[8] = release 15 min. after sc injection, dosage of peptide 100 ng
[9] = release 15 min. after sc injection, dosage of peptide 1000 ng
[10] = release 60 min. after sc injection, dosage of peptide 300 ng
[11] = release 60 min. after sc injection, dosage of peptide 3000 ng
[12] = 60 min. after sc injection, 300 ng
[13] = 60 min. after sc injection, 3000 ng
[14] = 15 min. after sc injection, 100 ng, experiment marked *
[15] = 15 min. after sc injection, 1000 ng, experiment marked *
[16] = 30 min. after sc injection, 50 ng, LHRH = 100
[17] = 30 min. after sc injection, 1000 ng, LHRH = 100
[18] = release 15 min. after sc injection, dosage of peptide 50 ng
[19] = release 30 min. after sc injection, dosage of peptide 50 ng
[20] = release 30 min. after sc injection, dosage of peptide 1000 ng

## CC(C)C[C@H](NC(=O)CNC(=O)[C@H](Cc1c[nH]cn1)NC(=O)[C@H](CO)NC(=O)[C@H](Cc1c[nH]c2ccccc12)NC(=O)[C@H](Cc1c[nH]cn1)NC(=O)[C@@H]1CCC(=O)N1)C(=O)N[C@@H](CCC(N)=O)C(=O)N1CCC[C@H]1C(=O)NCC(N)=O [[His^5 Gln^8]--LHRH, p-Glu His Trp Ser His Gly Leu Gln Pro Gly-NH2] ([pGlu]HWSHGLQPG-NH2)
[1]; [4]
  LH % change: 29%
[1]; [5]
  LH % change: 47%
[1]; [6]
  LH % change: 30%
[1]; [7]
  LH % change: 8.3%
[1]; [8]
  LH: 7 ng/mL
[1]; [9]
  LH: 27 ng/mL
[1]; [10]
  LH: 3.3 ng/mL
[1]; [11]
  LH: 6.8 ng/mL
[2]; [12]
  FSH % change: 48%
[2]; [13]
  FSH % change: 39%
[2]; [8]
  FSH: 343 ng/mL
[2]; [9]
  FSH: 416 ng/mL
[2]; [10]
  FSH: 283 ng/mL
[2]; [11]
  FSH: 456 ng/mL

## CC(C)C[C@H](NC(=O)CNC(=O)[C@H](Cc1c[nH]cn1)NC(=O)[C@H](CO)NC(=O)[C@H](Cc1c[nH]c2ccccc12)NC(=O)[C@H](Cc1c[nH]cn1)NC(=O)[C@@H]1CCC(=O)N1)C(=O)N[C@@H](CC(C)C)C(=O)N1CCC[C@H]1C(=O)NCC(N)=O [[His^5 Leu^8]--LHRH, p-Glu His Trp Ser His Gly Leu Leu Pro Gly-NH2] ([pGlu]HWSHGLLPG-NH2)
[1]; [4]
  LH % change: 0.8%
[1]; [5]
  LH % change: 5%
[1]; [6]
  LH % change: 20%
[1]; [7]
  LH % change: 2.2%
[1]; [8]
  LH: 0.2 ng/mL
[1]; [9]
  LH: 3.3 ng/mL
[1]; [10]
  LH: 2.2 ng/mL
[1]; [11]
  LH: 1.8 ng/mL
[2]; 15 min. after sc injection, 100 ng
  FSH % change: 43%
[2]; 15 min. after sc injection, 1000 ng
  FSH % change: 57%
[2]; [12]
  FSH % change: 44%
[2]; [13]
  FSH % change: 18%
[2]; [8]
  FSH: 202 ng/mL
[2]; [9]
  FSH: 276 ng/mL
[2]; [10]
  FSH: 261 ng/mL
[2]; [11]
  FSH: 205 ng/mL

## CC(C)C[C@H](NC(=O)[C@H](Cc1c[nH]c2ccccc12)NC(=O)CNC(=O)[C@H](Cc1c[nH]cn1)NC(=O)[C@H](CO)NC(=O)[C@H](Cc1c[nH]c2ccccc12)NC(=O)[C@H](Cc1c[nH]cn1)NC(=O)[C@@H]1CCC(=O)N1)C(=O)N1CCC[C@H]1C(=O)NCC(N)=O [[His^5 Trp^7 Leu^8]--LHRH, p-Glu His Trp Ser His Gly Trp Leu Pro Gly-NH2] ([pGlu]HWSHGWLPG-NH2)
[1]; [4]
  LH % change: 38%
[1]; [5]
  LH % change: 40%
[1]; [6]
  LH % change: 23%
[1]; [7]
  LH % change: 6%
[1]; levels of 100 and 1000 ng
  LH released, % of the LH released by LHRH: up to 50%
[1]; [8]
  LH: 9 ng/mL
[1]; [9]
  LH: 23 ng/mL
[1]; [10]
  LH: 2.5 ng/mL
[1]; [11]
  LH: 5 ng/mL
[2]; [12]
  FSH % change: 62%
[2]; [13]
  FSH % change: 32%
[2]; [8]
  FSH: 383 ng/mL
[2]; [9]
  FSH: 445 ng/mL
[2]; [10]
  FSH: 369 ng/mL
[2]; [11]
  FSH: 376 ng/mL
[3]
  release of FSH compared with LHRH: equivalent in activity to LHRH
[3]; Trp^7 Leu^8 ]-LHRH
  release of FSH compared with LHRH: released as much FSH as LHRH

## N=C(N)NCCC[C@H](NC(=O)[C@H](Cc1c[nH]c2ccccc12)NC(=O)CNC(=O)[C@H](Cc1c[nH]cn1)NC(=O)[C@H](CO)NC(=O)[C@H](Cc1c[nH]c2ccccc12)NC(=O)[C@H](Cc1c[nH]cn1)NC(=O)[C@@H]1CCC(=O)N1)C(=O)N1CCC[C@H]1C(=O)NCC(N)=O [[His^5 Trp^7]--LHRH, p-Glu His Trp Ser His Gly Trp Arg Pro Gly-NH2] ([pGlu]HWSHGWRPG-NH2)
[1]; 15 min. after sc injection, 50 ng, LHRH = 100
  LH % change: 188%
[1]; [14]
  LH: 13 ng/mL
[1]; [15]
  LH: 23 ng/mL
[1]; 15 min. after sc injection, 1000 ng, experiment marked *, LHRH* = 100
  LH % change: 59%
[1]; [16]
  LH % change: 67%
[1]; [17]
  LH % change: 40%
[1]; [18]
  LH: 30 ± 3 ng/mL
[1]; [8]
  LH: 30 ng/mL
[1]; [9]
  LH: 39 ng/mL and 78 ng/mL
[1]; [19]
  LH: 12 ng/mL
[1]; [20]
  LH: 51 ng/mL
[1]; [10]
  LH: 26.0 ng/mL
[1]; [11]
  LH: 138 ng/mL
[1]
  release of LH compared with LHRH: as active as LHRH; also recorded: significantly positive, but less than that at the higher dosage; also recorded: released significantly more LH and FSH than did LHRH at a dosage of 50 ng; also recorded: equivalent to that released by the same dosage of LHRH; also recorded: significantly positive, but lower than that released at the higher dose level; also recorded: both peptides had comparable activities
[2]; 15 min. after sc injection, 50 ng
  FSH % change: 121%
[2]; [14]
  FSH: 346 ng/mL
[2]; [15]
  FSH: 456 ng/mL
[2]; [18]
  FSH: 663 ng/mL
[2]; [8]
  FSH: 502 ng/mL
[2]; [9]
  FSH: 562 ng/mL and 429 ng/mL
[2]; [19]
  FSH: 387 ng/mL
[2]; [20]
  FSH: 857 ng/mL
[2]; [10]
  FSH: 624 ng/mL
[2]; [11]
  FSH: 1448 ng/mL
[3]
  release of FSH compared with LHRH: as active as LHRH; also recorded: equivalent to that from LH; also recorded: released significantly more LH and FSH than did LHRH at a dosage of 50 ng; also recorded: equivalent to that released by the same dosage of LHRH; also recorded: higher than that for LH; also recorded: both peptides had comparable activities

## CC(C)C[C@H](NC(=O)CNC(=O)[C@H](Cc1c[nH]cn1)NC(=O)[C@H](CO)NC(=O)[C@H](Cc1c[nH]c2ccccc12)NC(=O)[C@H](Cc1c[nH]cn1)NC(=O)[C@@H]1CCC(=O)N1)C(=O)N[C@@H](Cc1ccc(O)cc1)C(=O)N1CCC[C@H]1C(=O)NCC(N)=O [[His^5 Tyr^8]--LHRH, p-Glu His Trp Ser His Gly Leu Tyr Pro Gly-NH2] ([pGlu]HWSHGLYPG-NH2)
[1]; [16]
  LH % change: 3%
[1]; [17]
  LH % change: 4%
[1]; [7]
  LH % change: 3.4%
[1]; [19]
  LH: 0.5 ng/mL
[1]; [20]
  LH: 5.0 ng/mL
[1]; [11]
  LH: 2.8 ng/mL
[2]; 30 min. after sc injection, 1000 ng
  FSH % change: 3%
[2]; [13]
  FSH % change: 42%
[2]; [19]
  FSH: 235 ng/mL
[2]; [20]
  FSH: 534 ng/mL
[2]; [11]
  FSH: 495 ng/mL

## CC(C)C[C@H](NC(=O)CNC(=O)[C@H](Cc1c[nH]cn1)NC(=O)[C@H](CO)NC(=O)[C@H](Cc1c[nH]c2ccccc12)NC(=O)[C@H](Cc1c[nH]cn1)NC(=O)[C@@H]1CCC(=O)N1)C(=O)N[C@@H](CCCNC(=N)N)C(=O)N1CCC[C@H]1C(=O)NCC(N)=O [[His^5]--LHRH, p-Glu His Trp Ser His Gly Leu Arg Pro Gly-NH2]
[1]; [10]
  LH: 14 ng/mL
[1]; [11]
  LH: 142 ± 29 ng/mL and 142 ng/mL
[1]
  release of LH compared with LHRH: as active as LHRH at two dose levels; also recorded: equivalent to LHRH in the release of LH
[2]; [13]
  FSH % change: 229%
[2]; [10]
  FSH: 652 ng/mL
[2]; [11]
  FSH: 2684 ng/mL
[3]
  release of FSH compared with LHRH: twice as active as LHRH at the high dosage; also recorded: two times as effective in the release of FSH at the higher dose level

## NC(=O)CC[C@H](NC(=O)[C@H](Cc1c[nH]c2ccccc12)NC(=O)CNC(=O)[C@H](Cc1ccc(O)cc1)NC(=O)[C@H](CO)NC(=O)[C@H](Cc1c[nH]c2ccccc12)NC(=O)[C@H](Cc1c[nH]cn1)NC(=O)[C@@H]1CCC(=O)N1)C(=O)N1CCC[C@H]1C(=O)NCC(N)=O [[Trp^7 Gln^8]--LHRH, p-Glu His Trp Ser Tyr Gly Trp Gln Pro Gly-NH2] ([pGlu]HWSYGWQPG-NH2)
[1]; [4]
  LH % change: 29%
[1]; [5]
  LH % change: 60%
[1]; [6]
  LH % change: 29%
[1]; [7]
  LH % change: 9.1%
[1]; [8]
  LH: 7 ng/mL
[1]; [9]
  LH: 34 ng/mL
[1]; [10]
  LH: 3.2 ng/mL
[1]; [11]
  LH: 7.5 ng/mL
[2]; [12]
  FSH % change: 58%
[2]; [13]
  FSH % change: 40%
[2]; [8]
  FSH: 421 ng/mL
[2]; [9]
  FSH: 502 ng/mL
[2]; [10]
  FSH: 345 ng/mL
[2]; [11]
  FSH: 474 ng/mL

## NC(=O)CNC(=O)[C@@H]1CCCN1C(=O)[C@H](Cc1ccc(O)cc1)NC(=O)[C@H](Cc1c[nH]c2ccccc12)NC(=O)CNC(=O)[C@H](Cc1ccc(O)cc1)NC(=O)[C@H](CO)NC(=O)[C@H](Cc1c[nH]c2ccccc12)NC(=O)[C@H](Cc1c[nH]cn1)NC(=O)[C@@H]1CCC(=O)N1 [[Trp^7 Tyr^8]--LHRH, p-Glu His Trp Ser Tyr Gly Trp Tyr Pro Gly-NH2] ([pGlu]HWSYGWYPG-NH2)
[1]; [6]
  LH % change: 25%
[1]; [7]
  LH % change: 4.6%
[1]; [10]
  LH: 2.8 ng/mL
[1]; [11]
  LH: 3.8 ng/mL
[2]; [12]
  FSH % change: 35%
[2]; [13]
  FSH % change: 30%
[2]; [10]
  FSH: 209 ng/mL
[2]; [11]
  FSH: 352 ng/mL

## CC(C)C[C@H](NC(=O)CNC(=O)[C@H](Cc1ccc(O)cc1)NC(=O)[C@H](CO)NC(=O)[C@H](Cc1c[nH]c2ccccc12)NC(=O)[C@H](Cc1c[nH]cn1)NC(=O)[C@@H]1CCC(=O)N1)C(=O)N[C@@H](Cc1ccc(O)cc1)C(=O)N1CCC[C@H]1C(=O)NCC(N)=O [[Tyr^8]--LHRH, p-Glu His Trp Ser Tyr Gly Leu Tyr Pro Gly-NH2]
[1]; [6]
  LH % change: 23%
[1]; [7]
  LH % change: 3%
[1]; [10]
  LH: 2.5 ng/mL
[1]; [11]
  LH: 2.7 ng/mL
[1]
  release of LH compared with LHRH: relatively low activities
[2]; [12]
  FSH % change: 48%
[2]; [13]
  FSH % change: 38%
[2]; [10]
  FSH: 285 ng/mL
[2]; [11]
  FSH: 449 ng/mL
[2]; sc injection, dose and time as stated in the source
  release of FSH compared with LHRH: relatively low activities
